Measured values from US20050032873A1, “3-Amino chroman and 2-amino tetralin derivatives” (Wyeth, priority 2003, published 2005).
Where two headings read alike, the source gives them in different places.

What was measured:
5-HT1A receptor = target: T1, 5-HT1A receptor (Homo sapiens, UniProt P08908); assay: 5-HT1A receptor affinity: displacement of [3H] 8-OH-DPAT; format: binding; set-up: expressed in transfected cells; settings: for Ki: displacement of [3H] 8-OH-DPAT, CHO cells stably transfected with human 5-HT1A receptors, read-out: 5-HT1A Receptor Affinity Ki; for inhibition at 1 µM: read-out: 5-HT1A Receptor Affinity, % @ 1 μM
T1 sequence (P08908 1-422): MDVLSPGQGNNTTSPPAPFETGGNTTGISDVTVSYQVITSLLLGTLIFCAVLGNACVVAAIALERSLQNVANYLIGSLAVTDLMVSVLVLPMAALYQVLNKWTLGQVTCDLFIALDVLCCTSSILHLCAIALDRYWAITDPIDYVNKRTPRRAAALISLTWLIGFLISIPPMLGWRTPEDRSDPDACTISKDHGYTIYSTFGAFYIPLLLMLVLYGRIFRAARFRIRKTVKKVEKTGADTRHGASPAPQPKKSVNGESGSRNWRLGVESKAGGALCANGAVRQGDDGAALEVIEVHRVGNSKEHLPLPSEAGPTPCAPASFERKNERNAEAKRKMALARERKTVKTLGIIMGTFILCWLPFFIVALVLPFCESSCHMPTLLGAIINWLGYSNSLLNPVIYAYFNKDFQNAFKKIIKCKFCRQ

serotonin transporter = target: T2, serotonin transporter (Rattus norvegicus, UniProt P31652); assay: 5-HT transporter affinity: displacement of 3H-paroxetine from male rat cortical membranes; format: binding; settings: displacement of 3H-paroxetine; male rat cortical membranes; read-out: 5-HT Transporter Affinity Ki
T2 construct: displace ^3H-paroxetine from male rat cortical membranes; from tissue; host or cells: male rat cortical membranes
T2 sequence (P31652 whole entry): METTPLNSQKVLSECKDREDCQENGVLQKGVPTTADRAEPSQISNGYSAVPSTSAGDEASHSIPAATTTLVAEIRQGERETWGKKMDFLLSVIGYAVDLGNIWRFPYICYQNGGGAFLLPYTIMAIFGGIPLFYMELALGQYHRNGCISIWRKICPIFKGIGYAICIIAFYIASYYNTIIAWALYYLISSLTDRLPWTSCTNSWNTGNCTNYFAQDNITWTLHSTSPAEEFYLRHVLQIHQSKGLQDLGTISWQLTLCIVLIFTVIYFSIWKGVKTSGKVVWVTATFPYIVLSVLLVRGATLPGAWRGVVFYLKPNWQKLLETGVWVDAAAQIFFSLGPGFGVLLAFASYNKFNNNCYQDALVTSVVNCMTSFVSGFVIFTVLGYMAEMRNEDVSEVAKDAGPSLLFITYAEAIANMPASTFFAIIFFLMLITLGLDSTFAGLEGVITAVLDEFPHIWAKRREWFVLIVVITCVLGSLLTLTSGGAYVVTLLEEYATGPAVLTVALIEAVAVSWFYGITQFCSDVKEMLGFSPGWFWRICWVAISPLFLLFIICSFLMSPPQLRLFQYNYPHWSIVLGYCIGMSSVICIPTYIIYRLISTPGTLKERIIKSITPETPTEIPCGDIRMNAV

[1] = target: T3, cloned human 5-HT1A receptors (Homo sapiens, UniProt P08908); assay: 35S-GTPγS binding assay, 5-HT1A function; format: biochemical; settings: for EC50: agonist potency
T3 construct: expressed in transfected cells
T3 sequence (P08908 1-422): T1 sequence (P08908 1-422)

[2] = maximum stimulatory effect, in brackets after EC50, read-out: 5-HT1A Function GTPγS (Emax)

SMILES	Ki (5-HT1A receptor) [nM]	Ki (serotonin transporter) [nM]	EC50 [1] [nM]	Emax [1, 2] [%]	inhibition at 1 µM (5-HT1A receptor) [%]	IC50 ([1]; antagonist potency, reversal of 8-OH-DPAT, read-out: 5-HT1A Function GTPγS IC50) [µM]	Emax ([1]; maximum inhibitory effect, in brackets after IC50, read-out: 5-HT1A Function GTPγS (Imax)) [%]
CNC(=O)c1ccc(F)c2c1CC(NCCCCc1c[nH]c3ccc(F)cc13)CO2 (stereo not drawn) [Compound 92, 8-fluoro-3-{[4-(5-fluoro-1H-indol-3-yl)butyl]amino}-N-methylchromane-5-carboxamide]		7.95	1170	50	47		
COc1cccc2c(CCCNC3COc4c(F)ccc(C(N)=O)c4C3)c[nH]c12 (stereo not drawn) [Compound 99, 8-fluoro-3-{[3-(7-methoxy-1H-indol-3-yl)propyl]amino}chromane-5-carboxamide]		525			48	4.02	100
NC(=O)c1ccc(F)c2c1OCC(NCCCc1c[nH]c3ccc(F)cc13)C2 (stereo not drawn) [Compound 119, 5-fluoro-3-{[3-(5-fluoro-1H-indol-3-yl)propyl]amino}chromane-8-carboxamide]	36.9	14.2	3160	100			
NC(=O)c1ccc(F)c2c1OCC(NCCCCc1c[nH]c3ccc(F)cc13)C2 (stereo not drawn) [Compound 123, 5-fluoro-3-{[4-(5-fluoro-1H-indol-3-yl)butyl]amino}chromane-8-carboxamide]	280	3.81	2260	100			
CCCN(CCCCc1c[nH]c2ccc(F)cc12)C1COc2c(C(N)=O)ccc(F)c2C1 (stereo not drawn) [Compound 124, 5-fluoro-3-[[4-(5-fluoro-1H-indol-3-yl)butyl](propyl)amino]chromane-8-carboxamide]		9.9	698	41	48		

Continued, values first:

Ki (5-HT1A receptor) [nM]	Ki (serotonin transporter) [nM]	EC50 [1] [nM]	Emax [1, 2] [%]	inhibition at 1 µM (5-HT1A receptor) [%]	IC50 ([1]; antagonist potency, reversal of 8-OH-DPAT, read-out: 5-HT1A Function GTPγS IC50) [µM]	Emax ([1]; maximum inhibitory effect, in brackets after IC50, read-out: 5-HT1A Function GTPγS (Imax)) [%]	SMILES
21.2	1.08	110	62				CCN(CCCc1c[nH]c2ccc(F)cc12)C1COc2c(F)ccc(C(=O)NC)c2C1 (stereo not drawn) [Compound 89, 3-{ethyl[3-(5-fluoro-1H-indol-3-yl)propyl]amino}-8-fluoro-N-methylchromane-5-carboxamide]
139	22.5	1100	67				CCCN(CCCc1c[nH]c2ccc(F)cc12)C1COc2c(C(N)=O)ccc(F)c2C1 (stereo not drawn) [Compound 120, 5-fluoro-3-[[3-(5-fluoro-1H-indol-3-yl)propyl](propyl)amino]chromane-8-carboxamide]
67.7	41.8	3820	70				NC(=O)c1ccc(F)c2c1OCC(N(CCCc1c[nH]c3ccc(F)cc13)CC1CC1)C2 (stereo not drawn) [Compound 121, 3-{(cyclopropylmethyl)[3-(5-fluoro-1H-indol-3-yl)propyl]amino}-5-fluorochromane-8-carboxamide]
	54.5	608	59	47			NC(=O)c1ccc(F)c2c1OCC(NCCCc1c[nH]c3c(F)cc(F)cc13)C2 (stereo not drawn) [Compound 128, 3-{[3-(5,7-difluoro-1H-indol-3-yl)propyl]amino}-5-fluorochromane-8-carboxamide]
38.6	43.2	1000	83				NC(=O)c1cccc2c1C[C@@H](NCCCc1c[nH]c3ccc(F)cc13)CO2 [Compound 133b, (3R)-3-{[3-(5-fluoro-1H-indol-3-yl)propyl]amino}chromane-5-carboxamide]
1.27	3.34	43	100				CNC(=O)c1cccc2c1CC(N(CCCc1c[nH]c3c(F)cc(F)cc13)C1CCC1)CO2 (stereo not drawn) [Compound 138, 3-{cyclobutyl[3-(5,7-difluoro-1H-indol-3-yl)propyl]amino}-N-methylchromane-5-carboxamide]
4.83	3.9	180	81				CCNC(=O)c1cccc2c1CC(N(CCCc1c[nH]c3c(F)cc(F)cc13)C1CCC1)CO2 (stereo not drawn) [Compound 139, 3-{cyclobutyl[3-(5,7-difluoro-1H-indol-3-yl)propyl]amino}-N-ethylchromane-5-carboxamide]
